Source: patent publication US20250026778A1 (TIUMBIO CO., LTD., priority 2021, published 2025)
Where two headings read alike, the source gives them in different places.

Target: T1, his-galectin-3 (Homo sapiens, UniProt P17931)
T1 construct: purchased Abcam
Assay: TR-FRET assay (in vitro galectin-3 binding inhibitory activity test)
Conditions: compound at 20 μM, 60 nM his-galectin-3, 15 nM biotin-ASF
Summary of the method: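 Compound is premixed with his-galectin-3 (60 nM final), then biotin-ASF (15 nM), Tb anti-His antibody (2 nM) and streptavidin-d2 (20 nM) are added. After at least 3.5 hours at RT in HEPES/NaCl buffer with Tween 20 and BSA, TR-FRET is read at 615/665 nm. DMSO serves as the uninhibited control, ASF omission as background.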

[1] = Table 1, read-out: % Inhibitory activity (at 20 μM)
[2] = read-out: % Inhibitory activity (at 20 μM), Table 1
[3] = Table 2, read-out: % Inhibitory activity (at 20 μM)
[4] = read-out: % Inhibitory activity (at 20 μM), Table 2

T1 sequence (P17931 whole entry): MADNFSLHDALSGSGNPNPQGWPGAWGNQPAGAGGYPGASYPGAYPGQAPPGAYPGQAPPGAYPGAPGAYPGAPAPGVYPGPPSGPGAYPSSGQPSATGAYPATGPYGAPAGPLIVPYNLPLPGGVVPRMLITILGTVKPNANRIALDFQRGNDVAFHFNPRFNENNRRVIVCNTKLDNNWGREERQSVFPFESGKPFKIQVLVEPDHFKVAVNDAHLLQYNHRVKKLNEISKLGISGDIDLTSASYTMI

inhibition at 20 µM [1] [%] | Compound | also measured
< 25 | OC[C@H]1O[C@@]2(CCCN(Cc3cccc(Cl)c3)C2)[C@H](O)[C@@H](n2cc(-c3cc(F)c(F)c(F)c3)nn2)[C@H]1O [Compound A143, (2R,3R,4S,5R,6R)-8-(3-chlorobenzyl)-2-(hydroxymethyl)-4-(4-(3,4,5-trifluorophenyl)-1H-1,2,3-triazol-1-yl)-1-oxa-8-azaspiro[5.5]undecane-3,5-diol] | 
< 25 | O=C(c1cccnc1)N1CCC[C@]2(C1)O[C@H](CO)[C@H](O)[C@H](n1cc(-c3cc(F)c(F)c(F)c3)nn1)[C@H]2O [Compound A144, ((2R,3R,4S,5R,6R)-3,5-dihydroxy-2-(hydroxymethyl)-4-(4-(3,4,5-trifluorophenyl)-1H-1,2,3-triazol-1-yl)-1-oxa-8-azaspiro[5.5]undecan-8-yl)(pyridin-3-yl)methanone] | 
< 25 | O=C(N[C@@H]1CCO[C@]12O[C@H](CO)[C@H](O)[C@H](n1cc(-c3cc(F)c(F)c(F)c3)nn1)[C@H]2O)C(F)(F)c1ccccc1 [Compound A147, N-((4R,5S,7R,8R,9S,10R)-8,10-dihydroxy-7-(hydroxymethyl)-9-(4-(3,4,5-trifluorophenyl)-1H-1,2,3-triazol-1-yl)-1,6-dioxaspiro[4.5]decan-4-yl)-2,2-difluoro-2-phenylacetamide] | 
25 to 50 | O=C(Cc1ccc(Oc2ccccc2)cc1)N[C@@H]1CCO[C@]12O[C@H](CO)[C@H](O)[C@H](n1cc(-c3cc(F)c(F)c(F)c3)nn1)[C@H]2O [Compound A148, N-((4R,5S,7R,8R,9S,10R)-8,10-dihydroxy-7-(hydroxymethyl)-9-(4-(3,4,5-trifluorophenyl)-1H-1,2,3-triazol-1-yl)-1,6-dioxaspiro[4.5]decan-4-yl)-2-(4-phenoxyphenyl)acetamide] | 
50 to 75 | O=C(N[C@@H]1CCO[C@]12O[C@H](CO)[C@H](O)[C@H](n1cc(-c3cc(F)c(F)c(F)c3)nn1)[C@H]2O)c1ccc2cc(Cl)ccc2c1 [Compound A149, 6-chloro-N-((4R,5S,7R,8R,9S,10R)-8,10-dihydroxy-7-(hydroxymethyl)-9-(4-(3,4,5-trifluorophenyl)-1H-1,2,3-triazol-1-yl)-1,6-dioxaspiro[4.5]decan-4-yl)-2-naphthamide] | 
> 75 | O=C(N[C@@H]1CCO[C@]12O[C@H](CO)[C@H](O)[C@H](n1cc(-c3cc(F)c(F)c(F)c3)nn1)[C@H]2O)c1cccc(Br)c1 [Compound A150, 3-bromo-N-((4R,5S,7R,8R,9S,10R)-8,10-dihydroxy-7-(hydroxymethyl)-9-(4-(3,4,5-trifluorophenyl)-1H-1,2,3-triazol-1-yl)-1,6-dioxaspiro[4.5]decan-4-yl)benzamide] | 
> 75 | O=C(Cc1cccc(Br)c1)N[C@@H]1CCO[C@]12O[C@H](CO)[C@H](O)[C@H](n1cc(-c3cc(F)c(F)c(F)c3)nn1)[C@H]2O [Compound A151, 2-(3-bromophenyl)-N-((4R,5S,7R,8R,9S,10R)-8,10-dihydroxy-7-(hydroxymethyl)-9-(4-(3,4,5-trifluorophenyl)-1H-1,2,3-triazol-1-yl)-1,6-dioxaspiro[4.5]decan-4-yl)acetamide] | 
50 to 75 | O=C(N[C@@H]1CCO[C@]12O[C@H](CO)[C@H](O)[C@H](n1cc(-c3cc(F)c(F)c(F)c3)nn1)[C@H]2O)c1cccc(C(F)(F)F)c1 [Compound A152] | 

The next lines start with the compound.

Compound | inhibition at 20 µM [1] [%] | also measured
COc1cccc(CC(=O)N2CCC[C@]3(C2)O[C@H](CO)[C@H](O)[C@H](n2cc(-c4cc(F)c(F)c(F)c4)nn2)[C@H]3O)c1 [Compound A140, 1-((2R,3R,4S,5R,6R)-3,5-dihydroxy-2-(hydroxymethyl)-4-(4-(3,4,5-trifluorophenyl)-1H-1,2,3-triazol-1-yl)-1-oxa-8-azaspiro[5.5]undecan-8-yl)-2-(3-methoxyphenyl)ethanone] | < 25 | 
OC[C@H]1O[C@@]2(CCCN(Cc3ccccc3)C2)[C@H](O)[C@@H](n2cc(-c3cc(F)c(F)c(F)c3)nn2)[C@H]1O [Compound A141, (2R,3R,4S,5R,6R)-8-benzyl-2-(hydroxymethyl)-4-(4-(3,4,5-trifluorophenyl)-1H-1,2,3-triazol-1-yl)-1-oxa-8-azaspiro[5.5]undecane-3,5-diol] |  | inhibition at 20 µM [2]: < 25%
OC[C@H]1O[C@@]2(CCCN(Cc3cccnc3)C2)[C@H](O)[C@@H](n2cc(-c3cc(F)c(F)c(F)c3)nn2)[C@H]1O [Compound A142, (2R,3R,4S,5R,6R)-2-(hydroxymethyl)-8-(pyridin-3-ylmethyl)-4-(4-(3,4,5-trifluorophenyl)-1H-1,2,3-triazol-1-yl)-1-oxa-8-azaspiro[5.5]undecane-3,5-diol] |  | inhibition at 20 µM [2]: < 25%
O=C(c1cccc(Cl)c1)N1CCC[C@]2(C1)O[C@H](CO)[C@H](O)[C@H](n1cc(-c3cc(F)c(F)c(F)c3)nn1)[C@H]2O [Compound A145, (3-chlorophenyl)((2R,3R,4S,5R,6R)-3,5-dihydroxy-2-(hydroxymethyl)-4-(4-(3,4,5-trifluorophenyl)-1H-1,2,3-triazol-1-yl)-1-oxa-8-azaspiro[5.5]undecan-8-yl)methanone] |  | inhibition at 20 µM [2]: < 25%
O=C(Cc1ccccc1)N[C@@H]1CCO[C@]12O[C@H](CO)[C@H](O)[C@H](n1cc(-c3cc(F)c(F)c(F)c3)nn1)[C@H]2O [Compound A146, N-((4R,5S,7R,8R,9S,10R)-8,10-dihydroxy-7-(hydroxymethyl)-9-(4-(3,4,5-trifluorophenyl)-1H-1,2,3-triazol-1-yl)-1,6-dioxaspiro[4.5]decan-4-yl)-2-phenylacetamide] |  | inhibition at 20 µM [2]: 25 to 50%; inhibition at 20 µM (read-out: % Inhibitory activity (at 20 μM), Table 3, found values): 40.7%
OC[C@H]1O[C@]2(OCC[C@H]2n2ccnn2)[C@H](O)[C@@H](n2cc(-c3cc(F)c(F)c(F)c3)nn2)[C@H]1O [Compound A153, (4R,5S,7R,8R,9S,10R)-7-(hydroxymethyl)-4-(1H-1,2,3-triazol-1-yl)-9-(4-(3,4,5-trifluorophenyl)-1H-1,2,3-triazol-1-yl)-1,6-dioxaspiro[4.5]decane-8,10-diol] |  | inhibition at 20 µM [3]: < 25%
OC[C@H]1O[C@]2(OCC[C@H]2n2cc(-c3ccccc3)nn2)[C@H](O)[C@@H](n2cc(-c3cc(F)c(F)c(F)c3)nn2)[C@H]1O [Compound A154, (4R,5S,7R,8R,9S,10R)-7-(hydroxymethyl)-4-(4-phenyl-1H-1,2,3-triazol-1-yl)-9-(4-(3,4,5-trifluorophenyl)-1H-1,2,3-triazol-1-yl)-1,6-dioxaspiro[4.5]decane-8,10-diol] |  | inhibition at 20 µM [4]: 25 to 50%
COc1cccc(CN[C@@H]2CCO[C@]23O[C@H](CO)[C@H](O)[C@H](n2cc(-c4cc(F)c(F)c(F)c4)nn2)[C@H]3O)c1 [Compound A155, (4R,5S,7R,8R,9S,10R)-7-(hydroxymethyl)-4-((3-methoxylbenzyl)amino)-9-(4-(3,4,5-trifluorophenyl)-1H-1,2,3-triazol-1-yl)-1,6-dioxaspiro[4.5]decane-8,10-diol] |  | inhibition at 20 µM [4]: < 25%
O=C(N[C@@H]1CCO[C@]12O[C@H](CO)[C@H](O)[C@H](n1cc(-c3cc(F)c(F)c(F)c3)nn1)[C@H]2O)c1sc2ccccc2c1Cl [Compound A156, 3-chloro-N-((4R,5S,7R,8R,9S,10R)-8,10-dihydroxy-7-(hydroxymethyl)-9-(4-(3,4,5-trifluorophenyl)-1H-1,2,3-triazol-1-yl)-1,6-dioxaspiro[4.5]decan-4-yl)benzo[b]thiophene-2-carboxamide] |  | inhibition at 20 µM [3]: 50 to 75%
